Data set [1] in a line: Metabolic stability test: liver microsomal stability assay. In kind it is in vitro ADME, mouse. Conditions: mouse liver microsomes 0.5 mg protein/mL, compound 1 µM; for microsomal CLint at 1 µM: male, pH 7.4, presence of NADPH, read-out: Mouse Hepatic Microsome CLh,int NADPH(+); for Mouse Hepatic Microsome CLh,int NADPH(-): absence of NADPH.
Data set [2] in a line: Membrane permeability test using Caco-2 cells with preincubation. It is filed as in vitro ADME. Conditions: Caco-2; preincubation 20 to 24 hours; Apical FaSSIF/HBSS pH 6.0, Basal HBSS 4% BSA pH 7.4; 180 minutes; read-out: Caco2 Papp. A general note: Passage across Caco-2 layers is used to estimate intestinal permeability.
The subject of data set [3] is Caco-2 cells. The description is as above. It is filed as in vitro ADME. Conditions: Caco-2 cells, preincubation 20 to 24 hours; apical FaSSIF/HBSS 1% DMSO pH 6.0, basal HBSS 4% BSA pH 7.4; basal sample at 180 minutes.

Each structure is given as a SMILES string. Starred links: 1 amine or outer side, 2 acyl side, 3 side chain; linkers in the order of their positions; H or OH if unused. Positions of bridges follow the written chain, without caps; N, C: chain ends. Non-standard residues stand in square brackets, D forms with d. Residues, ends and D or L forms follow the SMILES beside them. *: point of attachment. NMeF = CN[C@@H](Cc1ccccc1)C(=O)O; NMeGABA = CN(CCCC(=O)[*:2])[*:1]; NMeI = CC[C@H](C)[C@H](NC)C(=O)O; NMeT = CN[C@H](C(=O)O)[C@@H](C)O; hPhe = N[C@@H](CCc1ccccc1)C(=O)O; NMeβAla = CN(CCC(=O)[*:2])[*:1]; NMeL = CN[C@@H](CC(C)C)C(=O)O; dNMeV = CN[C@@H](C(=O)O)C(C)C; NMeV = CN[C@H](C(=O)O)C(C)C; NMeA = CN[C@@H](C)C(=O)O; Piperidide = C1CCN(*)CC1; Abu = CC[C@H](N)C(=O)O; NBuGly = CCCCNCC(=O)O; Sar = CNCC(=O)O; tBu = CC(C)(C)*

Regarding `CC[C@@H]1NC(=O)[C@H](Cc2ccccc2)N(C)C(=O)[C@H]([C@@H](C)CC)NC(=O)[C@H](CC(C)C)N(C)C(=O)[C@H](CC(C)C)NC(=O)CCN(C)C(=O)C[C@@H](C(=O)N2CCCCC2)NC(=O)[C@H](CC(C)C)N(C)C(=O)[C@H](C)N(C)C(=O)[C@H]([C@@H](C)O)NC(=O)[C@H](CC(C)C)N(C)C(=O)[C@H](C(C)C)NC(=O)[C@H](Cc2ccccc2)N(C)C1=O` [pd101] ([NMeβAla]L[NMeL]I[NMeF][Abu][NMeF]V[NMeL]T[NMeA][NMeL]D-Piperidide; lactam N-13), in data set [1], the microsomal CLint at 1 µM is 41.1 µL/min/mg and the “Mouse Hepatic Microsome CLh,int NADPH(-)” value was found to be 31.5 µL/min/mg Protein. Further, the Papp A→B in data set [2] came out at 0.16 ×10⁻⁶ cm/s. Further, in data set [3], the “Caco2 Papp (10^-6 cm/sec)” value is 0.16 10^-6 cm/sec.
Regarding `CC[C@H](C)[C@@H]1NC(=O)[C@H](C)N(C)C(=O)[C@H]([C@@H](C)O)NC(=O)[C@H](Cc2ccccc2)N(C)C(=O)[C@H](COC(C)(C)C)NC(=O)[C@H](CC(C)C)N(C)C(=O)[C@H](CCc2ccccc2)NC(=O)[C@@H]2CCCN2C(=O)[C@H]([C@@H](C)CC)NC(=O)[C@H](CC(C)C)N(C)C(=O)CCCN(C)C(=O)C[C@@H](C(=O)N2CCCCC2)NC(=O)[C@H](CC(C)C)N(C)C1=O` [pd102] ([NMeGABA][NMeL]IP[hPhe][NMeL]S(tBu)[NMeF]T[NMeA]I[NMeL]D-Piperidide; lactam N-13), in data set [1], the microsomal CLint at 1 µM is 32.9 µL/min/mg and the “Mouse Hepatic Microsome CLh,int NADPH(-)” value turned out to be 25.1 µL/min/mg Protein. Also, the Papp A→B in data set [2] worked out at 0.09 ×10⁻⁶ cm/s. The “Caco2 Papp (10^-6 cm/sec)” value in data set [3] is 0.09 10^-6 cm/sec.
Take `CCCCN1CC(=O)N[C@@H]([C@@H](C)CC)C(=O)N(C)[C@@H](CC(C)C)C(=O)N[C@H](C(=O)N2CCCCC2)CC(=O)N(C)[C@@H](C)C(=O)N(C)[C@@H](CC(C)C)C(=O)N[C@@H]([C@@H](C)O)C(=O)N(C)[C@@H](Cc2ccccc2)C(=O)N[C@@H](CC)C(=O)N(C)[C@@H](Cc2ccccc2)C(=O)N[C@@H](CC(C)C)C(=O)N(C)[C@@H]([C@@H](C)CC)C(=O)N[C@@H](CC(C)C)C1=O` [pd103] ([NMeA][NMeL]T[NMeF][Abu][NMeF]L[NMeI]L[NBuGly]I[NMeL]D-Piperidide; lactam N-13): in data set [1], the microsomal CLint at 1 µM is 25.5 µL/min/mg and the “Mouse Hepatic Microsome CLh,int NADPH(-)” value is reported as 21.3 µL/min/mg Protein. The Papp A→B in data set [2] amounted to 0.08 ×10⁻⁶ cm/s. Also, the “Caco2 Papp (10^-6 cm/sec)” value in data set [3] was 0.08 10^-6 cm/sec.
For `CC[C@H](C)[C@@H]1NC(=O)[C@H](CC(C)C)N(C)C(=O)[C@H](CC(C)C)NC(=O)[C@H](C)N(C)C(=O)C[C@@H](C(=O)N2CCCCC2)NC(=O)[C@H](CC(C)C)NC(=O)[C@@H]2CCCN2C(=O)[C@H](CC(C)C)N(C)C(=O)[C@H]([C@@H](C)O)NC(=O)[C@H]([C@@H](C)CC)N(C)C(=O)[C@H](Cc2ccccc2)N(C)C(=O)[C@H](C)NC(=O)[C@H](Cc2ccccc2)N(C)C1=O` [pd104] ([NMeA]L[NMeL]I[NMeF]A[NMeF][NMeI]T[NMeL]PLD-Piperidide; lactam N-13) the same measures were 36 µL/min/mg, 36.2 µL/min/mg Protein, 0.2 ×10⁻⁶ cm/s and 0.20 10^-6 cm/sec.
In the case of `CC[C@@H]1NC(=O)[C@H](Cc2ccccc2)N(C)C(=O)[C@H](CC(C)C)NC(=O)CNC(=O)[C@H]([C@@H](C)O)N(C)C(=O)[C@H](CC(C)C)N(C)C(=O)[C@H]([C@@H](C)CC)NC(=O)[C@H](Cc2ccccc2)N(C)C(=O)CN(C)C(=O)C[C@@H](C(=O)N2CCCCC2)NC(=O)[C@H](C(C)C)N(C)C(=O)[C@H](CC(C)C)NC(=O)[C@H](C)N(C)C1=O` [pd105] ([Sar][NMeF]I[NMeL][NMeT]GL[NMeF][Abu][NMeA]L[NMeV]D-Piperidide; lactam N-13), in data set [1], the microsomal CLint at 1 µM is 28.9 µL/min/mg and the “Mouse Hepatic Microsome CLh,int NADPH(-)” value came to 22.7 µL/min/mg Protein. Besides, the Papp A→B in data set [2] was found to be 0.11 ×10⁻⁶ cm/s. In addition, the “Caco2 Papp (10^-6 cm/sec)” value in data set [3] is 0.11 10^-6 cm/sec.
With `CC[C@@H]1NC(=O)[C@H](C(C)C)N(C)C(=O)[C@H](CC(C)C)NC(=O)[C@H](CC(C)C)N(C)C(=O)[C@H]([C@@H](C)O)NC(=O)CN(C)C(=O)[C@H]([C@@H](C)CC)NC(=O)[C@H](Cc2ccccc2)N(C)C(=O)[C@H](CC(C)C)N(C)C(=O)C[C@@H](C(=O)N2CCCCC2)NC(=O)[C@H](Cc2ccccc2)N(C)C(=O)[C@H](COC(C)(C)C)NC(=O)[C@@H]2CCCN2C1=O` [pd106] ([NMeL][NMeF]I[Sar]T[NMeL]L[NMeV][Abu]PS(tBu)[NMeF]D-Piperidide; lactam N-13), in data set [1], the microsomal CLint at 1 µM is 32.7 µL/min/mg and the “Mouse Hepatic Microsome CLh,int NADPH(-)” value was 37.4 µL/min/mg Protein. In addition, the Papp A→B in data set [2] came to 0.24 ×10⁻⁶ cm/s. Moreover, in data set [3], the “Caco2 Papp (10^-6 cm/sec)” value is listed as 0.24 10^-6 cm/sec.
In the same order, the values of `CC(C)C[C@@H]1NC(=O)[C@H](CC(C)C)N(C)C(=O)[C@H](C(C)C)N(C)C(=O)[C@H](CCc2ccccc2)NC(=O)[C@H]([C@@H](C)O)N(C)C(=O)[C@@H](C(C)C)NC(=O)C[C@@H](C(=O)N2CCCCC2)NC(=O)[C@H](C(C)C)N(C)C(=O)[C@H](CC(C)C)NC(=O)[C@H](Cc2ccccc2)N(C)C(=O)[C@@H]2CCCN2C(=O)[C@H](CC(C)C)N(C)C(=O)CN(C)C1=O` [pd107] ([dV][NMeT][hPhe][NMeV][NMeL]L[Sar][NMeL]P[NMeF]L[NMeV]D-Piperidide; lactam N-13) are 36.3 µL/min/mg, 31.5 µL/min/mg Protein, 0.81 ×10⁻⁶ cm/s and 0.81 10^-6 cm/sec.
Consider `CC(C)C[C@@H]1NC(=O)[C@H](C(C)C)N(C)C(=O)[C@H](Cc2ccccc2)N(C)C(=O)[C@H](CC(C)C)NC(=O)[C@H](CC(C)C)N(C)C(=O)[C@H](C)N(C)C(=O)[C@H]([C@@H](C)O)NC(=O)[C@H](CC(C)C)N(C)C(=O)[C@H](C(C)C)N(C)C(=O)[C@H](CC(C)C)NC(=O)[C@H](Cc2ccccc2)N(C)C(=O)[C@@H](C(C)C)N(C)C(=O)C[C@@H](C(=O)N2CCCCC2)NC1=O` [pd108] ([dNMeV][NMeF]L[NMeV][NMeL]T[NMeA][NMeL]L[NMeF][NMeV]LD-Piperidide; lactam N-13), for which, in data set [1], the microsomal CLint at 1 µM came to 39.9 µL/min/mg and the “Mouse Hepatic Microsome CLh,int NADPH(-)” value is reported as 35.5 µL/min/mg Protein. In addition, the Papp A→B in data set [2] came to 0.03 ×10⁻⁶ cm/s. Besides, the “Caco2 Papp (10^-6 cm/sec)” value in data set [3] is 0.03 10^-6 cm/sec.
For `CC[C@@H]1NC(=O)[C@H](Cc2ccccc2)N(C)C(=O)[C@H](C)N(C)C(=O)[C@H](CC(C)C)N(C)C(=O)[C@H](CC(C)C)NC(=O)CCCN(C)C(=O)C[C@@H](C(=O)N2CCCCC2)NC(=O)[C@H](CC(C)C)N(C)C(=O)[C@H](C)N(C)C(=O)[C@H]([C@@H](C)O)NC(=O)[C@H](CC(C)C)N(C)C(=O)[C@H](COC(C)(C)C)NC(=O)[C@H](Cc2ccccc2)N(C)C1=O` [pd109] ([NMeGABA]L[NMeL][NMeA][NMeF][Abu][NMeF]S(tBu)[NMeL]T[NMeA][NMeL]D-Piperidide; lactam N-13), in data set [1], the microsomal CLint at 1 µM came out at 40.6 µL/min/mg and the “Mouse Hepatic Microsome CLh,int NADPH(-)” value is 30.3 µL/min/mg Protein. For the same compound, the Papp A→B in data set [2] is 0.83 ×10⁻⁶ cm/s. Also, in data set [3], the “Caco2 Papp (10^-6 cm/sec)” value is on record as 0.83 10^-6 cm/sec.
